Tests used:
[1] = system: high K+ contracted porcine kidney main artery; assay: tension assay, high K+ contracted porcine kidney vessel rings; details: tension assay trace, FIG. 5
Protocol: The trachea, main bronchi and vessel rings (2-3 mm in width) of Sprague-Dawley rats, Harley Guinea Pigs and porchine were used to carry out the tension assay. The tissue rings were bathed in 3.5 ml or 30 ml tissue chamber and aired with 95% O2/5% CO2 at 37° C. The tension was measured using a tension transducer linked to a PowerLab system (ADInstruments, USA). The basal tension was set to 0.7-1.0 g step by step with a 0.1-0.2 g increment. After the base tension reached steady-state in control K-H solution, the rings were contracted for 5-10 minutes by a 70 mM high K^+ K-H solution and relaxed by switching back to normal K-H solution. The alternation between 70 mM K^+ K-H and normal K-H was repeated two more times to equilibrate the tissue before the experiment.

[2] = system: guinea pig ventricular myocytes; assay: action potentials, nystatin-perforated whole-cell patch-clamp, ventricular myocytes; type: cell-based
Protocol: (§1) The effects of a novel synthesized cAMP specific phosphodiesterase inhibitor MS23 on action potential parameters were examined and compared with those of milrinone and rolipram in isolated guinea-pig myocytes. Action potentials (AP) were recorded under nystatin-perforated whole-cell patch-clamp mode at a temperature of 35±0.5° C. […] In comparison, rolipram (30 μM) shortened APD90 from 318.3±8.9 to 274.6±9.8 msec (P<0.05, n=3) in ventricular cells. […] In contrast, milrinone (10 μM) elongated ventricular APD90 from 287.9±10.3 msec to 327.8±17.4 msec (P<0.05, n=4) and produced a significant delay of phase 1 and plateau phase, but acceleration of phase 3 repolarization (APD90 shortened from 153.9±12.1 to 135.5±12.3 msec, P<0.05, n=4) in atrial cells.
(§2) Single myocytes were isolated by enzymatic digestion of guinea pig hearts. The animal was anesthetized by I.P. injection of pentobarbital sodium (50 mg/kg) and the heart was excised and retrogradely perfused with oxygenated Tyrode solution containing (in […]): 140 NaCl, 5.4 KCl, 1.5 MgCl2, 1.8 CaCl2, 0.33 NaH2PO4, 5.5 Glucose, 19 Hepes (pH 7.4 with NaOH at 36.5° C.). The enzymatic digestion was carried out with Ca^2+-free Tyrode solution by adding 0.4 mg/ml of collagenase type II (306 units/mg) and 1.6 mg/ml Bovine Serum Albumin V.
(§3) Transmembrane potentials were recorded under nystatin-perforted whole-cell current-clamp mode at 36.5° C. when the cells were bathed in Tyrode solution. The finished pipette had resistance of 4-7 MΩ when filled with a perforate solution containing (in mM): 140 KCl, 2 MCl2, 0.5 CaCl2, 10 Glucose, 10 Hepes (pH 7.2 with KOH), and 8.64 nM nystatin. The correction of junction potential was carried out off-line. The data acquisition was performed with an Axonpatch-200B amplifier/Digidata 1322A/Clampex 8.2 system (Axon Instrument, Inc., USA). Action potential was evoked by consecutive 10 msec rectangular current pulses at an interval of 2 seconds. APD was measured at 90% of repolarization (APD^90). The cell was held at a −40 mV membrane potential to inactivate the sodium channels. L-type calcium current was elicited by a step pulse from −40 mV to 0 mV with a duration of 300 msec.

[3] = blood pressure in anesthetized dogs after intravenous bolus injection; type: in vivo; details: for Left Ventricular End Diastolic Pressure: control 8.7; for Blood Pressure Min: control 46.6; for Blood Pressure Mean: control 67.2; for Left Ventricular Systolic Pressure: control 78.5; for Blood Pressure Max: control 99.8; for Heart Rate: control 119.8, in bpm (unit assumed)
Protocol: This example illustrates the effect that MS23 has on blood pressure reduction through an in vivo experiment in dogs. An intravenous bolus injection of MS23 was administered to anesthetized dogs at a dose of 0.25 mg/kg.bw. […] Higher doses of MS23 produced a greater decrease in blood pressure without affecting heart rate and left ventricular end diastolic pressure.

[4] = onset of therapeutic effect after administration; type: in vivo
[5] = blood pressure and heart rate in anesthetized rats after oral gavage; type: in vivo; details: anesthetized female rat; for Mean Blood Pressure: saline control 186; for Heart Rate: saline control 364
Protocol: This example illustrates the effect that MS23 has on blood pressure reduction through an in vivo experiment. Specifically, this example illustrates the effect of an intravenous bolus injection of MS23 on blood pressure. Female Sprague-Dawley rats weighing 200-225 g were anesthetized with pentobarbital (30 mg/kg body weight (bw), i.p.). The animals were positioned supinely on a heat plate that was controlled by an automatic temperature controller system (TC-324B, Warner Instrument Corp.) to maintain its body temperature constant (36° ±0.5° C.) during the experiment. The trachea, right carotid artery, and left femoral vein were exposed. The trachea was cannulated and the animal was breathed with air through a respirator at a rate of 65-70/min and an inspiration pressure of approximately 10 cm H2O. PE catheters were implanted into the carotid artery and femoral vein, respectively. The animal was heparinized by i.v. injection of approximately 300 units of heparin dissolved in 0.3 ml of 0.9% saline. Arterial pressure was recorded from the carotid artery catheter connected to a physiological pressure transducer (SP 844, Capto Company, Norway) that was coupled to a bridge amplifier (PowerLab, ADInstruments). The data was digitized through a 16 SP interface and acquire on-line with Chart 4.0 software (PowerLab, ADInstruments) and stored to a personal computer.
MS23 was administered to two female rats via oral gavage at a dose of 26 and 80 mg/kg.bw, respectively. The agent was dissolved in 0.9% saline in a volume of 0.5 ml. The same volume of saline alone was administered to two control animals. After 15 minutes, the animal was anesthetized with pentobarbital (30 mg/kg.bw, i.p.) and same surgery was performed except that the femoral vein was not exposed and there was no i.v. administration of the test agent. The carotid blood pressure and heart rate were monitored and recorded for 60 minutes using the same method described above. The initial recording was made within 45 to 65 minutes after performing oral gavage. The results are reported in the following Table 1 (the MBP and HR were measured within 30 minutes after the surgery).

[6] = solubility; type: physicochemical
[7] = system: guinea pig atrial myocytes; assay: action potentials, nystatin-perforated whole-cell patch-clamp, atrial myocytes; type: cell-based
Protocol: as §1, §2, §3

[8] = system: T1, PDE-4; details: reported in Hatzelmann et al. 2001; read-out: IC50 for roflumilast activity on PDE-4; cited from earlier work
T1 construct: other: reported in Hatzelmann et al. 2001

[9] = system: PDE1; details: reported in Hatzelmann et al. 2001; read-out: IC50 for roflumilast activity on PDE1; cited from earlier work
[10] = target: PDE5 (Homo sapiens, UniProt O76074); details: ratio of cited IC50 values
Protocol: PDE inhibition is then determined by the presence or absence of substrate degradation products. […] The relative ability of an inhibitory compound to slow or prevent the degradation of tritiated cyclic nucleotides is one test that is indicative of how well the compound in question selects one or more of each isoform to inhibit.

Which “effect on tension of high K+ contracted porcine kidney main artery” value [1] does the source give for `CCN(CC)CC(=O)Nc1c(C)cccc1C` [Lidocaine] here?
Its value is “did not relax”.

Which results are given for `CCCN(CC)C(C)C(=O)Nc1[nH]c(CCSC)c(C)c1C(N)=O` (stereo not shown) [MS23]?
prolongation of ventricular APD ([2]; from 1 to 100 μM): did not prolong; APD90 (action potential duration at 90% of repolarization) ([2]; ventricular cells, 30 μM, before drug 304.9±24.0 msec, P<0.05, n=8): 254.9 ± 28.4 ms; Left Ventricular End Diastolic Pressure ([3]; Bolus 1 mg/kg·bw): 9.0; Blood Pressure Min ([3]; Bolus 1 mg/kg·bw): 39.8; Blood Pressure Mean ([3]; Bolus 1 mg/kg·bw): 58.4; Left Ventricular Systolic Pressure ([3]; Bolus 1 mg/kg·bw): 71.8; Blood Pressure Max ([3]; Bolus 1 mg/kg·bw): 90.5 mmHg; Heart Rate ([3]; Bolus 1 mg/kg·bw): 118.2; Left Ventricular End Diastolic Pressure ([3]; Bolus 2 mg/kg·bw): 9.2; Blood Pressure Min ([3]; Bolus 2 mg/kg·bw): 33.7; Blood Pressure Mean ([3]; Bolus 2 mg/kg·bw): 48.0; Left Ventricular Systolic Pressure ([3]; Bolus 2 mg/kg·bw): 63.1; Blood Pressure Max ([3]; Bolus 2 mg/kg·bw): 76.8 mmHg; Heart Rate ([3]; Bolus 2 mg/kg·bw): 109.7; reduction in blood pressure ([3]; intravenous bolus 0.25 mg/kg.bw): 4 mmHg; onset of therapeutic effect (response occurs) ([4]; after intraperitoneal administration): < 3 min; onset of therapeutic effect (response occurs) ([4]; after oral gavage): ≤ 30 min; Mean Blood Pressure ([5]; oral gavage 26 mg/kg·bw): 156 mm Hg; Heart Rate ([5]; oral gavage 26 mg/kg·bw): 384 beat/min; Mean Blood Pressure ([5]; oral gavage 80 mg/kg·bw): 126 mm Hg; Heart Rate ([5]; oral gavage 80 mg/kg·bw): 300 beat/min; solubility in physiological saline [6]: soluble; effect on APD ([7]; atrial cells, 30 μM): no effect; prolongation of atrial APD ([7]; from 1 to 100 μM): did not prolong

Which “effect on tension of high K+ contracted porcine kidney main artery” value [1] does the source give for `NC[C@H](O)c1ccc(O)c(O)c1` [Norepinephrine] here?
Its value is “contracted”.

Which “effect on APD90” value ([2]; ventricular cells, 10 μM, after treatment with either rolipram or MS23) does the source give for `Cc1[nH]c(=O)c(C#N)cc1-c1ccncc1` [milrinone] here?
Its value is “markedly shortened”.

And the APD90 ([2]; ventricular cells, 10 μM, before drug 287.9±10.3 msec, P<0.05, n=4)?
The APD90 was 327.8 ± 17.4 ms.

What about the APD90 ([7]; atrial cells, 10 μM, before drug 153.9±12.1 msec, P<0.05, n=4) of the same molecule?
The APD90 was 135.5 ± 12.3 ms.

Which IC50 [8] does the source give for `O=C(Nc1c(Cl)cncc1Cl)c1ccc(OC(F)F)c(OCC2CC2)c1` [roflumilast] here?
The IC50 was 0.8 nM.

And the IC50 [9]?
Its IC50 is over 10000 nM.

What about the “selectivity for PDE-4 as compared with PDE5 (PDE5 IC50/PDE-4 IC50)” value [10] of the same molecule?
The value was “at least 10,000”.

What does the source list for `COc1ccc(C2CNC(=O)C2)cc1OC1CCCC1` (stereo not shown) [rolipram, reference compound]?
APD90 ([2]; ventricular cells, 30 μM, before drug 318.3±8.9 msec, P<0.05, n=3): 274.6 ± 9.8 ms; effect on action potential phases ([7]; atrial cells, 30 μM): small delay of phase 1 and plateau phase, but acceleration of phase 3 repolarization

From patent US20070117861A1, “Treatment or prevention of cardiovascular and respiratory disorders with novel substituted cyclic-amp specific phosphodiesterase inhibitors” (University of South Carolina, priority 2003, published 2007)
